Laboratory results as given in patent publication US6358700B2, “Method for detecting microorganisms by fluorescent staining using hydrostatic pressure” (Japan Marine Science and Technology Center, priority 1998, dated 2002).

Legend:
[1] = tested on: IFO2347 strain; assay: Flow cytometry of CDCFDA-labeled cells; type: cell-based, Saccharomyces cerevisiae; conditions: for mean fluorescence of labeled cells / peak fluorescence of labeled cells: 10 μM CDCFDA, 24° C., one hour
Procedure: Cells were incubated with 10 μM CFDA or 10 μM CDCFDA and cultivated under several hydrostatic pressures for one hour. After decompression, the labeled (or stained) cells were washed twice with distilled water and re-suspended in MB buffer. The cells were analyzed using the Bryte-HS Flow Cytometry System (available from Bio-Rad) under ordinary pressure.
The IFO2347 strain was cultured at 24° C. for one hour in the presence of 10 μM CDCFDA, under a hydrostatic pressure of 0.1, 30 or 60 MPa. The CDCFDA-labeled cells (about 100,000) were analyzed using the Bryte-HS Flow Cytometry System. FIG.2A depicts the histograms showing the intensity distribution of populations of IFO2347 cells labeled with CDCFDA observed after the cultivation.

[2] = tested on: IFO2347 strain; assay: Accumulation of CF and CDCF under elevated hydrostatic pressure (CytoFluor 2350); type: cell-based, Saccharomyces cerevisiae; conditions: 10 μM CFDA or CDCFDA, one hour, FIG. 1A
Procedure: (§1) Cells of Saccharomyces cerevisiae were grown in YPD (1% yeast extract, 2% bactopeptone, 2% D-glucose) broth at 24° C. Cells from a log-phase culture (2×10^7 to 4×10^7 cells/ml) were collected by centiifugation and re-suspended in fresh YPD containing 50 mM citric acid (pH 3.0 or pH 5.0), then placed in plastic tubes (Cryotubes, available from Nunc) at 2×10^7 to 3×10^7 cells/ml. After sealing with Parafilm, the tubes were put into titanium pressure vessels, followed by application of a desired hydrostatic pressure. The each required hydrostatic pressure was established within 2 min using a hand pump (available from Rigo-sha, Japan). To remove samples, the pressure was released in approximately 15 sec.
(§2) Cells originated fiom a log-phase culture (2×10^7 to 4×10^7 cells/ml) were incubated with 10 μM CFDA (Sigma, Cat. No. C-5041) in YPD containing 50 mM citric acid (pH 3.0), or 10 μM CDCFDA Molecular Probe, Cat. No. C-369) in YPD containing 50 mM citric acid (pH 5.0), respectively, under varying hydrostatic pressures ranging from ordinary pressure to 60 MPa. To analyze the dependence, on glucose, of pressure-induced dye-accumulation, vegetative cells were collected, washed twice in distilled water and starved for 30 min on ice. Then cells were suspended in MBA buffer (100 mM MES-Bis-Tris, 100 mM ammonium sulfate, pH 5.0), followed by addition of CDCFDA and application of a desired hydrostatic pressure of up to 6OMPa for one hour in the presence of D-glucose in various concentrations.
(§3) To analyze the effect of 2-deoxyglucose, cells were incubated with CDCFDA in MBA buffer containing 100 mM D-glucose. Unless otherwise specified, the final concentration of the fluorescent dye was 10 μM. After applying a desired hydrostatic pressure for one hour, the cells were washed twice with 10 mM MES-Bis-Tris (pH 5.0) and suspended in MB buffer. Fluorescence of the labeled cells emitted at 535 nm with excitation at 485 nm was detected using CytoFluor 2350 Plate Reader (available from Mlipore), or an RF5300PC spectrofluorometer (available from Shimazu, Japan). Fluorescence intensity (a. u.; arbitrary units) was recorded as the fluorescence of labeled cells minus the fluorescence of non-labeled cells for 10^7 cells.
(§4) Cells of the IFO2347 strain were incubated with 10 μM of CFDA or CDCFDA and cultured for one hour under each hydrostatic pressure condition. The stained cells were analyzed using Cytofluor 2350. The results thus obtained are plotted on FIG. 1A Similarly, cells of IFO10159 strain were inoculated with 10 μM of CFDA or CDCFDA and cultured for one hour under each hydrostatic pressure condition. The stained cells were analyzed using Cytofluor 2350. The results thus obtained are plotted on FIG. 1B. In FIGS. 1A and 1B, ◯ and ● represent cells stained with CF and those stained with CDCF, respectively.

[3] = tested on: IFO10159 strain; assay: as above; type: cell-based, Saccharomyces cerevisiae; conditions: ordinary pressure; for total fluorescence intensity of labeled cells: 10 μM dye, one hour
Procedure: as §1, §2, §3, §4

[4] = tested on: IFO2347 strain; assay: Dependency on glucose metabolism of pressure-induced CDCF accumulation; type: cell-based; conditions: Saccharomyces cerevisiae, MBA buffer with 100 mM D-glucose, 10 μM CDCFDA, FIG. 4B, read-out: concentration at which half-maximal inhibition of pressure-induced CDCF accumulation occurred
Procedure: as §2, with “Then cells were suspended in MBA buffer (100 mM MES-Bis-Tris, 100 mM ammonium sulfate, pH 5.0), followed by addition of CDCFDA and application of a desired hydrostatic pressure of up to 6OMPa for one hour in the presence of D-glucose in various concentrations.” left out
as §3, with “Unless otherwise specified, the final concentration of the fluorescent dye was 10 μM. After applying a desired hydrostatic pressure for one hour, the cells were washed twice with 10 mM MES-Bis-Tris (pH 5.0) and suspended in MB buffer.” left out
The cells of the strain were cultured at 24° C. for one hour in MBA buffer containing a desired amount of D-glucose at a predetermined hydrostatic pressure (0.1 MPa (◯), 30 MPa (●)) in the presence of 10 μM CDCFDA. The labeled cells were analyzed using CytoFluor 2350. […]

[5] = tested on: IFO2347 strain; assay: Effects of hydrostatic pressure on hydrolysis of CDCFDA; type: cell-based, Saccharomyces cerevisiae; conditions: for fluorescence intensity reached (hydrolysis under pressure): 50 μM CDCFDA, FIG. 3A
Description: Fluorescence emission was examined under several hydrostatic pressures in a hydrostatic chamber provided with transparent windows which were made by sapphire (size: 10×8 mm). Each sample in a transparent cuvette was placed in the chamber which was set up in an RF5300PC spectrofluorometer. Fluorescence was emitted at 535 nm with excitation at 485 nm. The fluorescence intensity of the labeled cells was strong enough to be detected through the sapphire windows, even though the emission was reduced compared to the analysis without such a hydrostatic chamber equipped with a sapphire window. Each hydrostatic pressure was applied using a hand pump (available from Teramecs, Co. Ltd., Japan).
A cuvette containing the IFO2347 strain was fitted to a container, followed by addition of 50 μM CDCFDA, application of a hydrostatic pressure at a point P (see FIG. 3A), and examination of the fluorescence intensity change with time in a hydrostatic chamber equipped with RF5300 Fluorescent Spectrometer. The results obtained are plotted on FIG. 3A The fluorescence intensity increased to 300 a.u. and 130 a.u. when hydrostatic pressures of 0.1 MPa (ordinary pressure) and 60 MPa were applied, respectively (FIG. 3A). On the other hand, the fluorescence intensity increased to 770 a.u. when a pressure of 30 MPa was applied.
Cells of the IFD2347 strain were pre-incubated at several hydrostatic pressures for one hour in YPD culture medium (pH 5.0), and subsequently the pre-incubated cells were placed into a cuvette, followed by addition of 50 μM of CDCFDA to the pressure-adapted cells at ordinary pressure and examination of any change in the fluorescence intensity (the hydrolysis activity) by the same method as used above. The results thus obtained are plotted on FIG. 3B. […] Almost identical results were obtained when using CFDA (data not shown).

Carboxydichlorofluorescein [CDCF]
mean fluorescence of labeled cells ([1]; 0.1 MPa (ordinary pressure)): 26 a.u.
peak fluorescence of labeled cells ([1]; 0.1 MPa (ordinary pressure)): 23 a.u.
increase of accumulation of CDCF ([1]; 30 MPa for one hour versus ordinary pressure): four to six folds
mean fluorescence of labeled cells ([1]; 30 MPa): 162 a.u.
peak fluorescence of labeled cells ([1]; 30 MPa): 92 a.u.
enhancement of staining ([1]; 60 MPa): not enhanced
hydrostatic pressure at which accumulation peaks [2]: 30 MPa
fluorescence intensity relative to non-labeled cells [3]: about 2.5 fold
total fluorescence intensity of labeled cells [3]: 24.8 a. u. per 10^7 cells

O=CC[C@@H](O)[C@H](O)[C@H](O)CO [2-deoxyglucose]
IC50 [4]: ~12 mM

Carboxyfluorescein [CF]
hydrostatic pressure at which accumulation peaks [2]: 40 MPa
fluorescence intensity relative to non-labeled cells [3]: 1.6 fold
total fluorescence intensity of labeled cells [3]: 15.5 a. u. per 10^7 cells

Carboxydichlorofluorescein diacetate [CDCFDA]
fluorescence intensity reached (hydrolysis under pressure) ([5]; 0.1 MPa (ordinary pressure)): 300 a.u.
fluorescence intensity reached (hydrolysis under pressure) ([5]; 30 MPa): 770 a.u.
fluorescence intensity reached (hydrolysis under pressure) ([5]; 60 MPa): 130 a.u.
rate of hydrolysis by cells adapted to 30 MPa relative to cells adapted to 0.1 MPa or 60 MPa ([5]; pre-incubation one hour, 50 μM CDCFDA added at ordinary pressure, FIG. 3B): approximately three times greater
